These are literature values, as cited in US8591947B2, “Dual controlled release dosage form” (Osmotica Kereskedelmi és Szolgáltató KFT, priority 2001, dated 2013).

Molecules are shown by their SMILES. Where a name gives a salt, the structure may show the parent alone.

Consider `CC(=O)Nc1ccc(O)cc1` [acetaminophen], for which the “Solubility of component in water (U.S.P. term)” value (“Solubility … (U.S.P. term)” for short) was “very slightly soluble”.

On to `Nc1nc2c(ncn2COCCO)c(=O)[nH]1` [acyclovir], for which the “Solubility … (U.S.P. term)” value is listed as “slightly soluble”.

For the compound `CC(C)(C)NCC(O)c1ccc(O)c(CO)c1` (stereo not drawn) [albuterol], the “Solubility … (U.S.P. term)” value is “sparingly soluble”.

With `Oc1ncnc2[nH]ncc12` [allopurinol], the “Solubility … (U.S.P. term)” value is listed as “very slightly soluble”.

In the case of `CN(C)CCC=C1c2ccccc2CCc2ccccc21` [amitriptyline], the “Solubility … (U.S.P. term)” value is “freely soluble”.

As for `CCOC(=O)C1=C(COCCN)NC(C)=C(C(=O)OC)C1c1ccccc1Cl` (stereo not drawn) [amlodipine besylate], the “Solubility … (U.S.P. term)” value is listed as “slightly soluble”.

`CC(=O)Oc1ccccc1C(=O)O` [aspirin]: the “Solubility … (U.S.P. term)” value is listed as “slightly soluble”.

In the case of `CC[C@H]1OC(=O)[C@H](C)[C@@H](O[C@H]2C[C@@](C)(OC)[C@@H](O)[C@H](C)O2)[C@H](C)[C@@H](O[C@@H]2O[C@H](C)C[C@H](N(C)C)[C@H]2O)[C@](C)(O)C[C@@H](C)CN(C)[C@H](C)[C@@H](O)[C@]1(C)O` [azithromycin dihydrate], the “Solubility … (U.S.P. term)” value is “practically insoluble”.

As to `CCOC(=O)[C@H](CCc1ccccc1)N[C@H]1CCc2ccccc2N(CC(=O)O)C1=O` [benazepril], the “Solubility … (U.S.P. term)” value is given as “soluble”.

For `CC(NC(C)(C)C)C(=O)c1cccc(Cl)c1` (stereo not drawn) [bupropion HCl], the “Solubility … (U.S.P. term)” value was “soluble”.

As to `O=C1CC2(CCCC2)CC(=O)N1CCCCN1CCN(c2ncccn2)CC1` [buspirone HCl], the “Solubility … (U.S.P. term)” value is “freely soluble”.

Take `C[C@H](CS)C(=O)N1CCC[C@H]1C(=O)O` [captopril]: the “Solubility … (U.S.P. term)” value was “freely soluble”.

In the case of `NC(=O)N1c2ccccc2C=Cc2ccccc21` [carbamazepine], the “Solubility … (U.S.P. term)” value is recorded as “practically insoluble”.

Regarding `COc1ccccc1OCCNCC(O)COc1cccc2[nH]c3ccccc3c12` (stereo not drawn) [carvedilol], the “Solubility … (U.S.P. term)” value is listed as “practically insoluble”.

For the compound `Cc1ccc(-c2cc(C(F)(F)F)nn2-c2ccc(S(N)(=O)=O)cc2)cc1` [celecoxib], the “Solubility … (U.S.P. term)” value is “practically insoluble”.

On to `CN/C(=N/CCSCc1nc[nH]c1C)NC#N` [cimetidine], for which the “Solubility … (U.S.P. term)” value was “sparingly soluble”.

As to `COc1cc(N)c(Cl)cc1C(=O)NC1CCN(CCCOc2ccc(F)cc2)CC1OC` (stereo not drawn) [cisapride monohydrate], the “Solubility … (U.S.P. term)” value is listed as “practically insoluble”.

On to `CN(C)CCCC1(c2ccc(F)cc2)OCc2cc(C#N)ccc21` (stereo not drawn) [citalopram], for which the “Solubility … (U.S.P. term)” value is given as “sparingly soluble”.

For `Clc1cccc(Cl)c1N=C1NCCN1` [clonidine HCl], the “Solubility … (U.S.P. term)” value is given as “soluble”.

`COC(=O)[C@H](c1ccccc1Cl)N1CCc2sccc2C1` [clopidogrel bisulfate]: the “Solubility … (U.S.P. term)” value is recorded as “practically insoluble”.

Consider `CN(C)CCC=C1c2ccccc2C=Cc2ccccc21` [cyclobenzaprine HCl], for which the “Solubility … (U.S.P. term)” value was “freely soluble”.

For `COc1ccc([C@@H]2Sc3ccccc3N(CCN(C)C)C(=O)[C@@H]2OC(C)=O)cc1` [diltiazem HCl], the “Solubility … (U.S.P. term)” value is “freely soluble”.

`COc1cc2nc(N3CCN(C(=O)C4COc5ccccc5O4)CC3)nc(N)c2cc1OC` (stereo not drawn) [doxazosin mesylate]: the “Solubility … (U.S.P. term)” value is “slightly soluble”.

As for `C[C@H]1c2cccc(O)c2C(=O)C2=C(O)[C@]3(O)C(=O)C(C(N)=O)=C(O)[C@@H](N(C)C)[C@@H]3[C@@H](O)[C@@H]21` [doxycycline hydrate], the “Solubility … (U.S.P. term)” value is reported as “soluble”.

Take `CCOC(=O)[C@H](CCc1ccccc1)N[C@@H](C)C(=O)N1CCC[C@H]1C(=O)O` [enalapril maleate]: the “Solubility … (U.S.P. term)” value is given as “sparingly soluble”.

On to `CCOC(=O)C1=C(C)NC(C)=C(C(=O)OC)C1c1cccc(Cl)c1Cl` (stereo not drawn) [felodipine], for which the “Solubility … (U.S.P. term)” value is “practically insoluble”.

Regarding `OC(Cn1cncn1)(Cn1cncn1)c1ccc(F)cc1F` [fluconazole], the “Solubility … (U.S.P. term)” value is recorded as “slightly soluble”.

In the case of `CCC(=O)O[C@]1(C(=O)SCF)[C@H](C)C[C@H]2[C@@H]3C[C@H](F)C4=CC(=O)C=C[C@]4(C)[C@@]3(F)[C@@H](O)C[C@@]21C` [fluticasone propionate], the “Solubility … (U.S.P. term)” value was “practically insoluble”.

On to `CCC(=O)O[C@@H](O[P@](=O)(CCCCc1ccccc1)CC(=O)N1C[C@H](C2CCCCC2)C[C@H]1C(=O)O)C(C)C` [fosinopril sodium], for which the “Solubility … (U.S.P. term)” value is “soluble”.

`NCC1(CC(=O)O)CCCCC1` [gabapentin]: the “Solubility … (U.S.P. term)” value is given as “freely soluble”.

Take `COc1ccc2c3c1O[C@H]1C[C@@H](O)C=C[C@@]31CCN(C)C2` [galantamine HBr]: the “Solubility … (U.S.P. term)” value is given as “sparingly soluble”.

Consider `COc1ccc(Cl)cc1C(=O)NCCc1ccc(S(=O)(=O)NC(=O)NC2CCCCC2)cc1` [glyburide], for which the “Solubility … (U.S.P. term)” value is given as “practically insoluble”.

On to `COc1ccc2c3c1O[C@H]1C(=O)CC[C@H]4[C@@H](C2)N(C)CC[C@]314.O=C(O)C(O)C(O)C(=O)O` [hydrocodone bitartrate], for which the “Solubility … (U.S.P. term)” value is “soluble”.

Take `OCCOCCN1CCN(C(c2ccccc2)c2ccc(Cl)cc2)CC1` (stereo not drawn) [hydroxyzine]: the “Solubility … (U.S.P. term)” value was “very soluble”.

Regarding `CC(C)Cc1ccc(C(C)C(=O)O)cc1` (stereo not drawn) [ibuprofen], the “Solubility … (U.S.P. term)” value was “very slightly soluble”.

For `O=[N+]([O-])O[C@@H]1CO[C@H]2[C@@H]1OC[C@@H]2O` [isosorbide mononitrate], the “Solubility … (U.S.P. term)” value is on record as “freely soluble”.

On to `Cc1c(OCC(F)(F)F)ccnc1C[S+]([O-])c1nc2ccccc2[nH]1` (stereo not drawn) [lansoprazole], for which the “Solubility … (U.S.P. term)” value is on record as “practically insoluble”.

With `CC[C@@H](C(N)=O)N1CCCC1=O` [levetiracetam], the “Solubility … (U.S.P. term)” value is “very soluble”.

As for `NCCCC[C@H](N[C@@H](CCc1ccccc1)C(=O)O)C(=O)N1CCC[C@H]1C(=O)O` [lisinopril], the “Solubility … (U.S.P. term)” value is on record as “soluble”.

Take `CCCCc1nc(Cl)c(CO)n1Cc1ccc(-c2ccccc2-c2nn[nH]n2)cc1` [losartan potassium]: the “Solubility … (U.S.P. term)” value is “freely soluble”.

For `Cc1cccc(CN2CCN(C(c3ccccc3)c3ccc(Cl)cc3)CC2)c1` (stereo not drawn) [meclizine HCl], the “Solubility … (U.S.P. term)” value is reported as “soluble”.

As for `CC12CC3CC(C)(C1)CC(N)(C3)C2` [memantine HCl], the “Solubility … (U.S.P. term)” value is listed as “slightly soluble”.

Turning to `COCCc1ccc(OCC(O)CNC(C)C)cc1` (stereo not drawn) [metoprolol tartrate], the “Solubility … (U.S.P. term)” value is “very soluble”.

For `Cc1ncc([N+](=O)[O-])n1CCO` [metronidazole], the “Solubility … (U.S.P. term)” value is “sparingly soluble”.

As for `C[C@@H]1C[C@H]2[C@@H]3CCC4=CC(=O)C=C[C@]4(C)[C@@]3(Cl)[C@@H](O)C[C@]2(C)[C@@]1(OC(=O)c1ccco1)C(=O)CCl` [mometasone furoate], the “Solubility … (U.S.P. term)” value is given as “practically insoluble”.

Turning to `COC(=O)C1=C(C)NC(C)=C(C(=O)OCC(C)C)C1c1ccccc1[N+](=O)[O-]` (stereo not drawn) [nisoldipine], the “Solubility … (U.S.P. term)” value is “practically insoluble”.

For `Cc1cc2c(s1)Nc1ccccc1N=C2N1CCN(C)CC1` [olanzapine], the “Solubility … (U.S.P. term)” value is reported as “practically insoluble”.

Take `COc1ccc2[nH]c([S+]([O-])Cc3ncc(C)c(OC)c3C)nc2c1` (stereo not drawn) [omeprazole]: the “Solubility … (U.S.P. term)” value was “very slightly soluble”.

With `COc1ccc2c3c1O[C@H]1C(=O)CC[C@@]4(O)[C@@H](C2)N(C)CC[C@]314` [oxycodone], the “Solubility … (U.S.P. term)” value is “soluble”.

Turning to `Fc1ccc([C@@H]2CCNC[C@H]2COc2ccc3c(c2)OCO3)cc1` [paroxetine HCl], the “Solubility … (U.S.P. term)” value is “slightly soluble”.

Turning to `O=C1N=C([O-])NC1(c1ccccc1)c1ccccc1.[Na+]` [phenyloin sodium], the “Solubility … (U.S.P. term)” value was “soluble”.

Regarding `CC(C)NCC(O)COc1cccc2[nH]ccc12` (stereo not drawn) [pindolol], the “Solubility … (U.S.P. term)” value was “practically insoluble”.

Regarding `CCc1ccc(CCOc2ccc(CC3SC(=O)NC3=O)cc2)nc1` (stereo not drawn) [pioglitazone HCl], the “Solubility … (U.S.P. term)” value is recorded as “practically insoluble”.

Turning to `CC[C@H](C)C(=O)O[C@H]1C[C@H](O)C=C2C=C[C@H](C)[C@H](CC[C@@H](O)C[C@@H](O)CC(=O)O)[C@H]21` [pravastatin sodium], the “Solubility … (U.S.P. term)” value is given as “soluble”.

Take `C[C@]12C=CC(=O)C=C1CC[C@@H]1[C@@H]2C(=O)C[C@@]2(C)[C@H]1CC[C@]2(O)C(=O)CO` [prednisone]: the “Solubility … (U.S.P. term)” value is listed as “very slightly soluble”.

`CC(CN1c2ccccc2Sc2ccccc21)N(C)C` (stereo not drawn) [promethazine HCl]: the “Solubility … (U.S.P. term)” value was “soluble”.

Take `CCC(=O)O[C@](Cc1ccccc1)(c1ccccc1)[C@H](C)CN(C)C.Cl` [propoxiphene HCl]: the “Solubility … (U.S.P. term)” value was “freely soluble”.

Regarding `CC(C)NCC(O)COc1cccc2ccccc12` (stereo not drawn) [propranolol HCl], the “Solubility … (U.S.P. term)” value is recorded as “soluble”.

`CCOC(=O)[C@H](CCc1ccccc1)N[C@@H](C)C(=O)N1Cc2ccccc2C[C@H]1C(=O)O` [quinapril]: the “Solubility … (U.S.P. term)” value was “freely soluble”.

`COCCCOc1ccnc(C[S+]([O-])c2nc3ccccc3[nH]2)c1C` (stereo not drawn) [rabeprazole sodium]: the “Solubility … (U.S.P. term)” value is given as “very soluble”.

Take `Cl.O=C(c1ccc(OCCN2CCCCC2)cc1)c1c(-c2ccc(O)cc2)sc2cc(O)ccc12` [ralozifene HCL]: the “Solubility … (U.S.P. term)” value was “very slightly soluble”.

Consider `CCOC(=O)[C@H](CCc1ccccc1)N[C@@H](C)C(=O)N1[C@H](C(=O)O)C[C@@H]2CCC[C@@H]21` [ramipril], for which the “Solubility … (U.S.P. term)” value is “slightly soluble”.

Regarding `CNC(=C[N+](=O)[O-])NCCSCc1ccc(CN(C)C)o1` [ranitidine HCl], the “Solubility … (U.S.P. term)” value was “very soluble”.
